Source: patent US11667602B2, “Compounds and their use” (AstraZeneca AB, priority 2020, dated 2023)
In brackets after ≈: the same amount, converted by molar mass. Where two headings read alike, the source gives them in different places.

What was measured:
[1] = Rat Hepatocyte Stability (Test E); format: in vitro ADME; settings: geometric mean if run multiple times; for hepatocyte CLint: rat, hepatocytes
How it was run: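 Intrinsic clearance in rat hepatocytes, expressed as μl/min/10^6 cells, following the literature integrated DMPK panel method. Repeat determinations combined as geometric mean.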

[2] = Human Liver Microsomal Stability (Test C); format: in vitro ADME; settings: for microsomal CLint: human, liver microsomes
How it was run: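 CLint (μl/min/mg protein) derived from compound depletion in human liver microsomes following a published standardized early-DMPK protocol; replicate determinations given as arithmetic mean.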

human RXFP1 = molecular target: T1, human RXFP1 (Homo sapiens, UniProt Q9HBX9); experiment: RXFP1 Hu cAMP (Test A); format: cell-based; design: expressed in transfected cells; host or cells: Jump-In T-REx CHO-K1 cells (ThermoFisher), induced with 10 ng/ml doxycycline for 24 h
T1 sequence (Q9HBX9 1-757): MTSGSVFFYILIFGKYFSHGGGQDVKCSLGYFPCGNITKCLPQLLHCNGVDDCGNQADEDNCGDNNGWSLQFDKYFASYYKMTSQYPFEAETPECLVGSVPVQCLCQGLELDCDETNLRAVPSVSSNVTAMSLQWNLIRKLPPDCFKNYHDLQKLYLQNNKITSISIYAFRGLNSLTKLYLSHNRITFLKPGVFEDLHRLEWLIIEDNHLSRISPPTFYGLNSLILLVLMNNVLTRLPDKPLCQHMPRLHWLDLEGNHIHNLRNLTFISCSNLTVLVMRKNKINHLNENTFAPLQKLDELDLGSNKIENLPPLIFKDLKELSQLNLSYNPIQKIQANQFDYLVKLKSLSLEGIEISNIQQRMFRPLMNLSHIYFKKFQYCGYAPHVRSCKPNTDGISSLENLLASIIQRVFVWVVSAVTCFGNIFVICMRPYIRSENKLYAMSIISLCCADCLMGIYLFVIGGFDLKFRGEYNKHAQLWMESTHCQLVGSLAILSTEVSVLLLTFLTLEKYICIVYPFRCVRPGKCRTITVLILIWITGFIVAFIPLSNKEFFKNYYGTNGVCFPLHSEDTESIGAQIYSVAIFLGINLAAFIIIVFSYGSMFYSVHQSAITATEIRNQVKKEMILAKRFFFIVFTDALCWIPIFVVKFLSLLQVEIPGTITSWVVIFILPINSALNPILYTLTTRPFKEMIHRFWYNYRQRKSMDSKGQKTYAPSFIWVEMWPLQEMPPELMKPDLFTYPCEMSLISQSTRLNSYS
How it was run: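 Read-out is HTRF signal, inversely proportional to cAMP, converted to cAMP amount by standard curve. Stimulation occurred in inducible CHO-K1 cells expressing the human receptor with phosphodiesterases blocked by 0.5 mM IBMX.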

[3] = Human Plasma Protein Binding (Test B); format: in vitro ADME; settings: fraction unbound (fu)
How it was run: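 Values given as % free (fu) in human plasma, using the method of Wernevik et al. (2020). For compounds tested more than once, the arithmetic mean is given.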

[4] = Human Hepatocyte Stability (Test D); format: in vitro ADME; settings: geometric mean if run multiple times; for hepatocyte CLint at 1 µM: human, cryopreserved pooled human hepatocytes (LiverPool 10-Donor)
How it was run: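 Intrinsic clearance (μL/min/10^6 cells), derived as kV/N from the log-linear loss of parent compound. Compound incubated at 37 °C with cryopreserved pooled human hepatocytes, 0.25×10^6 cells in 0.25 mL L-15; dosing solution 100 μM in acetonitrile. Singlicate incubations, cassette LC-MS; repeats reported as geometric mean.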

Solubility (Test F) = format: physicochemical; settings: arithmetic mean if run multiple times
Method: The assay was conducted according to the Solubility Assay described in pages 164-167 of Wernevik, J. et al., “A Fully Integrated Assay Panel for Early Drug Metabolism and Pharmacokinetics Profiling”, Assay and Drug Development Technologies, 2020, 18(4), 157-179. Data are reported in Table 36 as solubility ([…]. Where the assay was run multiple times for the same compound, the arithmetic mean is reported.

[5] = RXFP1 Hu cAMP, read-out: Test A EC50

SMILES | hepatocyte CLint [1] | microsomal CLint [2] | Test B Human Plasma Protein Binding (% free) [3] | hepatocyte CLint at 1 µM [4] | solubility (Solubility (Test F)) | EC50 (human RXFP1; [5]) | Test A Sinf (human RXFP1; RXFP1 Hu cAMP) | EC50 (human RXFP1; Test A EC50, RXFP1 Hu cAMP) | Test E Rat Hepatocyte Stability Clint ([1]; rat hepatocytes) | Test C Human Liver Microsomal Stability Clint ([2]; human liver microsomes) | Test D Human Hepatocyte Stability Clint ([4]; human hepatocytes)
CC1(CNC(=O)[C@H]2[C@H]3CC[C@H](C3)[C@H]2NC(=O)c2cc(O[C@H]3CC[C@@](C)(C(=O)O)CC3)c(C#N)cc2F)CCC1 [Example 413] | 21 µL/min/1e6 cells | 9.3 µL/min/mg | 1.5 % free | 4.5 µL/min/1e6 cells | 820 µM (≈ 443 µg/mL) | – | 107% | 16 nM | – | – | –
CC1(CNC(=O)[C@H]2[C@@H]3CC[C@@H](C3)[C@H]2NC(=O)c2cc(O[C@H]3CC[C@@](C)(C(=O)O)CC3)c(C#N)cc2F)CCC1 [Example 401] | 17 µL/min/1e6 cells | 16 µL/min/mg | 2.7 % free | 5.4 µL/min/1e6 cells | 1000 µM (≈ 540 µg/mL) | – | 115% | 49 nM | – | – | –
COc1cc(F)c(O[C@H]2CC[C@@](C)(C(=O)O)CC2)cc1C(=O)Nc1ccccc1C(=O)NCC1(C)CCC1 [Example 143, (1s,4s)-4-(2-Fluoro-4-methoxy-5-((2-(((1-methylcyclobutyl)methyl)-carbamoyl)phenyl)carbamoyl)phenoxy)-1-methylcyclohexane-1-carboxylic acid] | 24 µL/min/1e6 cells | < 3 µL/min/mg | 0.68 % free | 6.9 µL/min/1e6 cells | 1.6 µM (≈ 0.843 µg/mL) | – | 130% | – | – | – | –
COc1cc(F)c(-c2ccc(CC(=O)O)cc2)cc1C(=O)N[C@H]1[C@@H](C(=O)Nc2cccc(S(=O)(=O)C(F)(F)F)c2)[C@@H]2C=C[C@H]1C2 (racemic) [Example 234] | 9.3 µL/min/1e6 cells | 4.7 µL/min/mg | <0.30 % free | 6.5 µL/min/1e6 cells | 690 µM (≈ 446 µg/mL) | 88 nM | 110% | – | – | – | –
COc1cc(F)c(O[C@H]2CC[C@@](C)(C(=O)O)CC2)cc1C(=O)N[C@@H]1COC[C@@H]1C(=O)Nc1cccc(S(=O)(=O)C(F)(F)F)c1 (relative stereo) [Example 561, (1R,4s)-4-(2-Fluoro-4-methoxy-5-(((3S*,4R*)-4-((3-((trifluoromethyl)sulfonyl)phenyl)carbamoyl)tetrahydrofuran-3-yl)carbamoyl)phenoxy)-1-methylcyclohexane-1-carboxylic acid] | – | – | 3.7 % free | – | 930 µM (≈ 601 µg/mL) | 130 nM | 104% | – | 55 μL/min/10^6 cells | 17 µL/min/mg | 6.3 μL/min/10^6 cells
COc1cc(C#N)c(O[C@H]2CC[C@@](C)(C(=O)O)CC2)cc1C(=O)N[C@@H]1CCC[C@@H]1C(=O)NCC1(C)CCC1 [Example 360] | 17 µL/min/1e6 cells | 8.4 µL/min/mg | 15 % free | 3.6 µL/min/1e6 cells | > 1000 µM | 100 nM | 101% | – | – | – | –
COc1cc(F)c(O[C@H]2CC[C@@](CC#N)(C(=O)O)CC2)cc1C(=O)N[C@@H]1[C@H]2CC[C@H](C2)[C@@H]1C(=O)NCC1(C)CCC1 [Example 424, (1S,4s)-1-(Cyanomethyl)-4-(2-fluoro-4-methoxy-5-(((1S,2R,3S,4R)-3-(((1-methylcyclobutyl)methyl)carbamoyl)bicyclo[2.2.1]heptan-2-yl)carbamoyl)phenoxy)cyclohexane-1-carboxylic acid] | 21 µL/min/1e6 cells | 13 µL/min/mg | 6.7 % free | 10 µL/min/1e6 cells | 990 µM (≈ 564 µg/mL) | – | – | – | – | – | –

The next lines start with results.

hepatocyte CLint [1] | microsomal CLint [2] | Test B Human Plasma Protein Binding (% free) [3] | hepatocyte CLint at 1 µM [4] | solubility (Solubility (Test F)) | EC50 (human RXFP1; [5]) | SMILES | Test A Sinf (human RXFP1; RXFP1 Hu cAMP) | EC50 (human RXFP1; Test A EC50, RXFP1 Hu cAMP) | Test E Rat Hepatocyte Stability Clint ([1]; rat hepatocytes) | Test C Human Liver Microsomal Stability Clint ([2]; human liver microsomes) | Test D Human Hepatocyte Stability Clint ([4]; human hepatocytes)
28 µL/min/1e6 cells | 44 µL/min/mg | 2.5 % free | 3.9 µL/min/1e6 cells | 300 µM (≈ 166 µg/mL) | – | CCc1cc(OC)c(C(=O)N[C@@H]2[C@H]3CC[C@H](C3)[C@@H]2C(=O)NCC2(C)CCC2)cc1O[C@H]1CC[C@@](C)(C(=O)O)CC1 [Example 376] | – | – | – | – | –
15 µL/min/1e6 cells | 36 µL/min/mg | 2.7 % free | 4.7 µL/min/1e6 cells | 470 µM (≈ 264 µg/mL) | – | COc1cc(Cl)c(O[C@H]2CC[C@@](C)(C(=O)O)CC2)cc1C(=O)N[C@@H]1[C@H]2CC[C@H](C2)[C@@H]1C(=O)NCC1(C)CCC1 [Example 392, (1S,4s)-4-(2-Chloro-4-methoxy-5-(((1S,2R,3S,4R)-3-(((1-methylcyclobutyl)methyl)carbamoyl)bicyclo[2.2.1]heptan-2-yl)carbamoyl)phenoxy)-1-methylcyclohexane-1-carboxylic acid] | – | – | – | – | –
15 µL/min/1e6 cells | < 3 µL/min/mg | 12 % free | < 1.2 µL/min/1e6 cells | 910 µM (≈ 491 µg/mL) | – | COc1cc(C#N)c(O[C@H]2CC[C@@](C)(C(=O)O)CC2)cc1C(=O)N[C@H]1C(C(=O)NCC(C)(C)C)[C@@H]2CC[C@H]1C2 (stereo partly drawn) [Example 621, (1S,4s)-4-(2-cyano-4-methoxy-5-(((1S,2R,3S,4R)-3-(neopentylcarbamoyl)bicyclo[2.2.1]heptan-2-yl)carbamoyl)phenoxy)-1-methylcyclohexane-1-carboxylic acid] | – | – | – | – | –
18 µL/min/1e6 cells | 19 µL/min/mg | 6.3 % free | 5.6 µL/min/1e6 cells | > 890 µM | – | COc1cc(C#N)c(O[C@H]2CC[C@@](C)(C(=O)O)CC2)cc1C(=O)N[C@@H]1[C@H]2CC[C@H](C2)[C@@H]1C(=O)NCC1(C)CCC1 [Example 592, (1S,4s)-4-(2-cyano-4-methoxy-5-(((1S,2R,3S,4R)-3-(((1-methylcyclobutyl)methyl)carbamoyl)bicyclo[2.2.1]heptan-2-yl)carbamoyl)phenoxy)-1-methylcyclohexane-1-carboxylic acid] | – | – | – | – | –
32 µL/min/1e6 cells | 38 µL/min/mg | 4.4 % free | 3.1 µL/min/1e6 cells | 240 µM (≈ 130 µg/mL) | – | COc1cc(C)c(O[C@H]2CC[C@@](C)(C(=O)O)CC2)cc1C(=O)N[C@@H]1[C@H]2CC[C@H](C2)[C@@H]1C(=O)NCC1(C)CCC1 [Example 375] | – | – | – | – | –
11 µL/min/1e6 cells | 5.8 µL/min/mg | 6 % free | 8 µL/min/1e6 cells | 910 µM (≈ 491 µg/mL) | – | COc1cc(C#N)c(O[C@H]2CC[C@@](C)(C(=O)O)CC2)cc1C(=O)N[C@@H]1[C@@H]2CC[C@@H](C2)[C@@H]1C(=O)NCC(C)(C)C [Example 389] | – | – | – | – | –
55 µL/min/1e6 cells | 34 µL/min/mg | 3.4 % free | 49 µL/min/1e6 cells | 680 µM (≈ 375 µg/mL) | – | COc1cc(C#N)c(O[C@H]2CC[C@@](C)(C(=O)O)CC2)cc1C(=O)N[C@@H]1[C@@H]2CC[C@@H](C2)[C@@H]1C(=O)NCC1(C)CCC1 [Example 388] | – | – | – | – | –
27 µL/min/1e6 cells | 14 µL/min/mg | 1.9 % free | 2 µL/min/1e6 cells | > 1000 µM | – | COc1cc(F)c(O[C@H]2CC[C@@](C)(C(=O)O)CC2)cc1C(=O)N[C@@H]1[C@H]2CC[C@H](C2)[C@@H]1C(=O)NCC1CCC1 [Example 2, (1S,4s)-4-(5-(((1S,2R,3S,4R)-3-((cyclobutylmethyl)carbamoyl)bicyclo[2.2.1]heptan-2-yl)carbamoyl)-2-fluoro-4-methoxyphenoxy)-1-methylcyclohexane-1-carboxylic acid] | – | – | – | – | –
